Measurements reported in US6774254B2, “Gold complexes” (National University of Singapore, priority 2000, dated 2004).

Assays:
[1] = system: K36 lymphoma (T-cell lymphoma); experiment: in vivo anti-tumor activity, K36 lymphoma in AKR mice (primary screen); details: at MTTD, i.p. Day 1-7, tumor weights Day 8-11
Method: (§1) The in vivo anti-tumor activities of the phosphino-gold(I) compounds were evaluated using a murine tumor model, K36 lymphoma (T-cell lymphoma), inoculated subcutaneously into the AKR inbred mice. K36 lymphoma is a transformed cell line which originated from the AKR mice infected with murine leukemic retrovirus. The K36 lymphoma cells are naturally tumorigenic in syngenic AKR mice and is non-immunogenic to the host mice. The in vivo tests were carried out according to the following protocol:
Day 0: K36 lymphoma cells were washed with phosphate-buffered saline (PBS) for three times and suspended in RPMI 1640 medium at the concentration of 10×10^6 cells/mL 10^6 cells in 0.1 mL of the medium were implanted subcutaneously into each of the two flanks of inbred AKR mice with a ½-in, 28-gauge, 1-mL syringe. The mice were then randomly distributed into control and treatment groups with 5 mice/group.
Day 1-7: The desired dose of a test agent was dissolved in a minimum amount (<50 μL) of dimethylacetamide (DMA), followed by addition of Cremaphor_EL (polyethoxylated castor oil, <30 μL) with mixing. Saline was added to dilute the drug solution and the desired dose was delivered in a volume of 5×0.3 mL for one group of mice (5 mice per group). In this case, the final concentration of dimethylacetamide was less than 3.3% and that of the carrier less than 2%. Formulation of a test agent was carried out just before injection into the animals. The test agent was injected intraperitoneally into the treatment groups of mice twice a day following the flexible schedule as recommended in the literature (Corbett, T. H.; Valeriote, F. A; LoRusso, P.; Polin, L; et. al. In “Anticancer Drug Development Guide: Preclinical Screening, Clinical Trials, and Approval”, (Ed. Teicher, B. A.), Humana Press Inc., Totowa, N.J., 1997 p 75-99.) to reach the most tolerated drug dose.
(§2) Day 8-11: Tumor weights were estimated from two-dimensional measurement, following the formula:
(§3) Tumor weight (in mg)=(a×b^2)/2,
(§4) wherein a and b are tumor length and width (in mm), respectively. The usual T/C value was used to assess the in vivo anti-tumor activity. T refers to the total tumor weight of the treatment group (including zeros), whereas, C refers to the total tumor weight of the non-treatment control group (including zeros). According to the NCI (National Cancer Institute in USA) standard, a T/C value of 42% is considered significant anti-tumor activity.
Furthermore, two compounds cisplatin (cis-diaminedichloroplatinum(II)) and [Au(dppe)2]Cl (dppe: 1,2-bis(diphenylphosphino)ethane) with known anti-tumor activities were also included in the In vivo test Table 2 summarizes the anti-tumor activities of (Sp)-1 and (Rp)-1.

advanced K36 lymphoma = advanced K36 lymphoma model, treatment from Day 7; format: in vivo, AKR mice; details: for anti-tumor activity against advanced K36 tumor model in words (FIG. 1): treatment from Day 7, i.p. twice a day; for MTTD in advanced K36 model: treatment from Day 7, up to 4 days; for average ILS % (Increased Life Span): control average life span 21 days after tumour implantation
Method: On Day 0, AKR mice were injected with K36 lymphoma cells. On Day 7, mice were divided into control and treatment groups. Treatment groups were injected intraperitoneally with either cisplatin, (Sp)-1, or (Rp)-1. Control groups were […] treated with any of the above compounds. On each subsequent day, the 3 treatment groups were injected with the respective compounds twice a day. Tumor weights were estimated from two-dimensional measurements on each day.
The anti-tumor activities of (Sp)- and (Rp)-I were also assessed against advanced K36 lymphoma model. Also, the active positive control, cisplatin, was included in the evaluation.
The protocol design for this test was similar as described above except that drug administrations began on Day 7 (Day 0 is the date of implantation). At this stage, the tumor sizes on mice averaged around 9×8 mm and the estimated average tumor weight was about 300 mg. Due to the extremely fast growth of the K36 lymphoma (the double time is around 1 day), there was limited time (up to 4 days) to escalate the drug dosage to the most tolerated level, before the tumor became too big to give a positive response to any drug treatment.
The results are visualised in FIG. 1. […] They can markedly retard the tumor growth during the period of drug treatment and even after treatment. The average ILS % (Increased Life Span) of (Sp)-I and (Rp)-I was 48% and 31%, respectively (the average life span of the control group was 21 days after tumour implantation). Particularly, one mouse treated with (Sp)-I survived for 48 days after tumour implantation.

P3HR-1 (B-cell lymphoma) = experiment: human suspension tumor cell line assay, P3HR-1; format: cell-based; details: 2 h exposure, cells counted after 5 days; read-out: cytotoxicity IC50, P3HR-1
Method: (§5) The human suspension tumor cell line assay determines the ability of a compound to inhibit the cells' ability to divide in vitro after a two hour exposure to the compound. The panel of human suspension tumor cell lines consist of Raji (B-cell lymphoma), Daudi (B-cell lymphoma), P3HR-1(B-cell lymphoma), and Molt-4 (T-cell leukemia). The cytotoxicity tests were carried out in vitro according to the following protocol:
(§6) Cryopreserved tumor cells were thawed and cultured in the media RPMI-1640 supplemented with 10% fetal calf serum (FCS) and 100 units/mL penicillin and 100 μg/mL streptomycin (“media R10”), in a 5% CO2 humidified incubator at 37° C. They were subcultured every three days in a 75 cm^2 tissue culture flask.
(§7) A hemocytometer with four 1×1×0.1 mm^3 cells was used to count the cell concentration of a specified cell suspension solution. Trypan Blue was used to determine the viability of the counted cells, as live cells can exclude the dye penetration.
(§8) Each of Raji, Daudi, P3HR-1 and Molt-4 cells were dispensed into 6-well petri plates with 30,000 cells per well and were labelled in groups of three. A drug solution with a specified concentration was freshly prepared by dilution of a gold complex solution (1 mM) in DMSO with the media R10. […] The number of cells in each well was counted and the average value of triplicate samples were determined for each drug concentration.

K36 lymphoma = experiment: secondary in vivo evaluation, K36 lymphoma at three dosage levels; parameters: species or system AKR mice
Method: as §1
The mice were then randomly distributed into control and treatment groups with 5 mice/group.
Day 1-7: The desired dose of a test agent was dissolved in a minimum amount (<50 μL) of dimethylacetamide (DMA), followed by addition of Cremaphor_EL (polyethoxylated castor oil, <30 μL) with mixing. Saline was added to dilute the drug solution and the desired dose was delivered in a volume of 5×0.3 mL for one group of mice (5 mice per group). […] Formulation of a test agent was carried out just before injection into the animals.
as §2, §3
as §4, with “zeros).” for “zeros). According to the NCI (National Cancer Institute in USA) standard, a T/C value of 42% is considered significant anti-tumor activity.”
In addition, three dose levels of 0.67 decrements were used in the secondary in vivo evaluation studies of (Sp)-1 and (Rp)-1 against the K36 lymphoma. The purpose of testing at multiple dosage levels is to exclude agents with exceptionally steep dose-response curves, where only the most tolerated dose is active.

Daudi (B-cell lymphoma) = experiment: human suspension tumor cell line assay, Daudi; format: cell-based; details: 2 h exposure, cells counted after 5 days; read-out: cytotoxicity IC50, Daudi
Method: as §5, §6, §7, §8

Molt-4 (T-cell leukemia) = experiment: human suspension tumor cell line assay, Molt-4; format: cell-based; details: 2 h exposure, cells counted after 5 days; read-out: cytotoxicity IC50, Molt-4
Method: as §5, §6, §7, §8

Mahlavu (liver cancer) = experiment: cytotoxicity against human adherent tumor cell line Mahlavu; format: cell-based; details: four hours exposure, cells counted after 5 days
Method: In addition, cytotoxicities of (Sp)-1 and (Rp)-1 against a human adherent tumor cell line, Mahlavu (liver cancer), were also evaluated according to the following protocol:
Cryopreserved Mahlavu cells were thawed and cultured as a monolayer in the media M10 (Dulbecco's modified eagle's medium supplemented with 10% FCS and 100 units/mL penicillin and 100 μg/mL streptomycin) in a 75 cm^2 tissue culture flask. The flask was kept in a 5% CO2 humidified incubator at 37° C. Since the cells attached strongly to the bottom of culture flask, trypsin solution in PBS was used to detach the cells and then the Mahlavu cells were washed and counted as suspension cells.
10,000 cells were placed into each well of 6-well petri plates and incubated overnight to allow attachment to the plate. Triplicate samples of cells were allowed to react with the gold(I) complexes at three concentrations for four hours, followed by removal of the media. As before, a control with no drug treatment was included. The plates were then washed once with PBS(5 mL) and fresh media M10 (3 mL) was added. The plates were incubated at 37° C. in a CO2 incubator for 5 days. The Mahlavu cells In each well were trypsinized and counted as usual.
The IC50 values of (Sp)-I and (Rp)-I against this adherent tumor cell line were 6 and 8 μM, respectively. The IC50 values were determined as described above.

Raji (B-cell lymphoma) = experiment: human suspension tumor cell line assay, Raji; format: cell-based; details: 2 h exposure, cells counted after 5 days; read-out: cytotoxicity IC50, Raji
Method: as §5, §6, §7, §8

[2] = dose levels of 54 and 36 μmol/kg

Compound | T/C (tumor weight treated/control x 100) [1] | anti-tumor activity against advanced K36 tumor model in words (FIG. 1) (advanced K36 lymphoma) | MTTD in advanced K36 model (advanced K36 lymphoma) | IC50 (P3HR-1 (B-cell lymphoma)) | T/C (K36 lymphoma; dosage 24 μmol/kg) | T/C (K36 lymphoma; dosage 36 μmol/kg) | T/C (K36 lymphoma; dosage 54 μmol/kg) | in vivo activity in words (K36 lymphoma; dosage level of 24 μmol/kg) | in vivo activity in words (K36 lymphoma; [2]) | IC50 (Daudi (B-cell lymphoma)) | IC50 (Molt-4 (T-cell leukemia)) | IC50 (Mahlavu (liver cancer)) | IC50 (Raji (B-cell lymphoma)) | average ILS % (Increased Life Span) (advanced K36 lymphoma) | survival of one treated mouse after tumour implantation (advanced K36 lymphoma; one mouse)
[Au+].[Cl-].c1ccc(P(CCP(c2ccccc2)c2ccccc2)c2ccccc2)cc1.c1ccc(P(CCP(c2ccccc2)c2ccccc2)c2ccccc2)cc1 [[Au(dppe)2]Cl, reference compound] | 12% | – | – | – | – | – | – | – | – | – | – | – | – | – | –
N.N.[Cl][Pt][Cl] [Cisplatin, cis-diaminedichloroplatinum(II), reference compound] | 6% | did not inhibit the growth of the advanced K36 lymphoma at all | 28 µmol/kg | – | – | – | – | – | – | – | – | – | – | – | –
CCOC(=O)C1C(P(c2ccccc2)c2ccccc2)C2C(C)=C(C)C1P2c1ccccc1.[Cl][Au].[Cl][Au] [(Rp)-I, μ-{(1α,4α,5α(S),6β(R),7R)-5-(diphenylphosphino)-2,3-dimethyl-6-(ethoxycarbonyl)-7-phenyl-7-phosphabicyclo[2.2.1]hept-2-ene-P5,P7}bis[chlorogold(I)]] | 6% | significant anti-tumor activities | 32 µmol/kg | 200 nM | 38% | 14% | 6% | moderate activity | highly active | 500 nM | 1000 nM | 8000 nM | 300 nM | 31% | –
CCOC(=O)C1C(P(c2ccccc2)c2ccccc2)C2C(C)=C(C)C1P2c1ccccc1.[Cl][Au].[Cl][Au] [(Sp)-I, μ-{(1α,4α,5α(R),6β(S),7S)-5-(diphenylphosphino)-2,3-dimethyl-6-(ethoxycarbonyl)-7-phenyl-7-phosphabicyclo[2.2.1]hept-2-ene-P5,P7}bis[chlorogold(I)]] | 5% | significant anti-tumor activities | 32 µmol/kg | 500 nM | 33% | 12% | 5% | moderate activity | highly active | 800 nM | 1000 nM | 6000 nM | 500 nM | 48% | 48 days
